A word on the IC50: it is the concentration at which inhibition is half-maximal.

The source of these data is ChEMBL document CHEMBL5137022, “Antitumor Activity of Rutaecarpine in Human Colorectal Cancer Cells by Suppression of Wnt/β-Catenin Signaling” (J Nat Prod, 2022).

Structures are written as SMILES.

In one series the test system is CCD-18Co. As to the kind of experiment: Antiproliferative activity against human CCD-18Co cells assessed as reduction in cell viability measured after 72 hrs by SRB assay. The class given is functional, cell-based. In general terms: In SRB staining, fixed cells bind dye roughly in proportion to their protein.
The test system of a further series is HCT-15. Nature of the series: Antiproliferative activity against human HCT-15 cells harboring wild type beta-catenin assessed as reduction in cell viability measured after 72 hrs by SRB assay. The class given is functional, cell-based. The following applies: HCT-15, 72 h.
A further series deals with HCT-116. As to the kind of experiment: Antiproliferative activity against human HCT-116 cells harboring beta-catenin mutant assessed as reduction in cell viability measured after 72 hrs by SRB assay. The settings on record: HCT-116, 72 h. The class given is functional, cell-based.
A further series deals with RKO. As to the kind of experiment: Antiproliferative activity against human RKO cells harboring wild type beta-catenin assessed as reduction in cell viability measured after 72 hrs by SRB assay. The class given is functional, cell-based.
A further series concerns SW480. As to the kind of experiment: Antiproliferative activity against human SW480 cells harboring wild type beta-catenin assessed as reduction in cell viability measured after 72 hrs by SRB assay. The class given is functional, cell-based. The settings on record: SW480, 72 h.
Another series concerns LS174T. Nature of the series: Antiproliferative activity against human LS174T cells harboring beta-catenin mutant assessed as reduction in cell viability measured after 72 hrs by SRB assay. The class given is functional, cell-based.
In a further series the test system is CCD-841CoN. Nature of the series: Antiproliferative activity against human CCD-841CoN cells assessed as reduction in cell viability measured after 72 hrs by SRB assay. The class given is functional, cell-based.
Series [1] can be described thus: Toxicity in BALB/c nude mouse xenografted with human LS174T cells assessed as effect on body weight at 10 to 30 mg/kg, ip administered 3 times per week for 21 days. The format is organism-based. The following applies: in vivo, 504 h, dose 10-30 mg/kg, time 21 day. Background: Xenograft models place foreign cells or tissue in a host animal.

Take `COc1cc([C@@H]2c3cc4c(cc3[C@@H](O[C@@H]3O[C@@H]5CO[C@@H](C)O[C@H]5[C@H](O)[C@H]3O)[C@H]3COC(=O)[C@H]23)OCO4)cc(OC)c1O` [ETOPOSIDE]: the IC50 stood at 20300 nM with CCD-18Co; 1800 nM in the series with HCT-15; 500 nM in the series on HCT-116; 1900 nM in the series with RKO; 800 nM with SW480; 900 nM in the series on LS174T. Moreover, the IC50 in the series with CCD-841CoN amounted to 7600 nM.
Take `CCc1c2c(nc3ccc(OC(=O)N4CCC(N5CCCCC5)CC4)cc13)-c1cc3c(c(=O)n1C2)COC(=O)[C@]3(O)CC` [IRINOTECAN]: the IC50 in the series on CCD-18Co turned out to be 18500 nM; in the series on HCT-15 it was 2700 nM; with HCT-116 it was 600 nM; in the series with RKO, 700 nM; with SW480 it was 3800 nM; in the series with LS174T, 700 nM. The IC50 with CCD-841CoN is 13200 nM. Further, in series [1], the Activity entry is given as “Toxic”.
